Experimental data as given in patent US9079977B2, “Anti-trypanosomal peptides and uses thereof” (priority 2009, dated 2015).
Where a SMILES comes first, the peptide text is derived from it.

How the values were obtained:
[1] = Protocol: Liposome permeabilization assays. Liposomes were constructed by hydration of dried lipid films with 10 mM Hepes and 30 mM calcein to a final lipid concentration of 10 mg/ml. Resulting multilamellar liposomes were extruded through a 0.1 μm polycarbonate filter at temperatures above the transition point of the particular lipid mixture. Untapped calcein was removed by gel filtration (Sephacryl S-300 HR). Permeabilization of liposomes was monitored fluorimetrically with a Perkin Elmer LS-55 luminescent spectrophotometer. Assays were performed by diluting liposomes 1:1000 into the appropriate buffer and monitoring fluorescence when excited by 484 nm light (5 nm slit width) and reading the emission intensity at 513 nm (10 nm slit widths). The percentage calcein release was calculated relative to the 100% fluorescence intensity, achieved by the addition of 0.01% Triton X-100.
[2] = test system: Human embryonic kidney cells (HEK)
[3] = test system: Bloodstream form T. b. brucei Lister 427; assay: Trypanosome killing assay, Example 2; assay type: cell-based, Trypanosoma brucei brucei; details: two hours at 37° C.
Protocol: Trypanosome killing assays. Bloodstream form T. b. brucei Lister 427 (MiTat 1.2), T. b. gambiense type 1 (Eliane strain) and T. b. rhodesiense KETR12482 were used in these studies. Trypanosome killing assays were performed as described previously (Hajduk et al., 1989, J Biol Chem; 264(9):5210-5217; Shiflett et al., 2005, J Biol Chem; 280(38):32578-32585; and Widener et al., 2007, PLoS Pathog; 3(9):1250-1261). Cultured trypanosomes (except for T. b. gambiense which were incubated at 1×10^6 cells/ml) were incubated in HMI-9 media (BSF) or SM media (PCF) at a density of 1×10^7 cells/ml containing either 10% heat inactivated fetal bovine serum or bovine serum albumin and peptide or control reagents for two hours at 37° C. Killing of BSF trypanosomes was evaluated by phase-contrast microscopy. Procyclic form trypanosomes were stained with 0.1% trypan blue. Trypan blue staining was also used for some BSF assays to eliminate any possible discrepancy between the PCF and BSF assays. Trypan blue was added at the endpoint of each assay to avoid any toxic effects.

[4] = test system: bloodstream form T. b. brucei (wild type 427); assay: Trypanosome lysis assay with Hpr-SP; assay type: cell-based, Trypanosoma brucei brucei; details: 8-80 μM peptide, 2 h, 37° C.
Protocol: Trypanosome lysis assays. Trypanosomes were cultured in the appropriate media and incubated at a cell density of 3×10^6 cells/ml with the addition of peptide from a 10 mg/ml stock in DMSO, or control reagents for 2 hours (h) at 37° C. Lysis of bloodstream form trypanosomes was evaluated by phase-contrast microscopy. Procyclic form trypanosomes were stained with 0.1% trypan blue. Trypan blue staining was also used for some bloodstream form assays to eliminate any possible discrepancy between the procyclic and bloodstream form assays.

BSF T. b. brucei [5] = assay: Trypanosome killing assay, Example 4; assay type: cell-based, Trypanosoma brucei brucei; details: two hour killing assay, 37° C.
Protocol: Trypanosome Killing Assays. Light microscopy based trypanosome killing assays were performed as previously described in detail (Harrington et al., 2010, J Biol Chem; 285(37):28659-66; Widener et al., 2007, PLoS Pathog; 3(9):1250-61; Shiflett et al., 2007, J Eukaryot Microbiol; 54(1):18-21; and Hajduk et al., 1989, J Biol Chem; 264(9):5210-7). Metacyclic T. b. brucei TREU 667 were obtained from dissection of the salivary glands of infected tsetse flies. Newly hatched Glossina morsitans morsitans (24-48 hours post eclosion) were fed defibrinated horse blood containing 2×10^6 ml^−1 trypanosomes and maintained at 25° C. in 75% relative humidity and fed maintenance blood meals three times per week. Following day 20-30, flies were harvested and salivary glands were dissected out and washed in HMI 9 media containing 10% fetal bovine serum. Metacyclic cells were collected via centrifugation and maintained in HMI 9 media with 10% fetal bovine serum at 37° C. in 5% CO2 until use. Killing assays were conducted with 1×10^4 cells/ml in HMI 9 media containing 10% fetal bovine serum. Trypanosoma vivax and T. congolense were grown from stabilites in donor ICR mouse (Harlan, United Kingdom). Parasites were harvested from mice by terminal exsanguination and passage of infected blood through a small anion exchange column. Cells were maintained in HMI 9 with 20% goat serum at 37° C. in 5% CO2 until use. Killing assays were performed with 1×10^7 cells/ml in HMI 9 media with either 20% goat serum, in the case of T. vivax and T congolense, and 10% fetal bovine serum, for T. b. brucei. Cells were incubated at 37° C. for 2 hours and dead parasites were scored visually. All were conducted in at least duplicate, and data points are the averages with standard deviations.

[6] = test system: plasma membrane of live BSF T. b. brucei; assay: Anisotropy assays with DPH and TMA-DPH, Example 4; assay type: cell-based, Trypanosoma brucei brucei; details: 37° C.
Protocol: Anisotropy Assays. The plasma membrane rigidity of live T. b. brucei was determined by measuring the fluorescence depolarization of diphenyl-1,3,5-hexatriene p-toluenesulfonate (DPH) or 1-(4-trimethylammoniumphenyl)-6-diphenyl-1,3,5-hexatriene p-toluenesulfonate (TMA-DPH; Invitrogen T204). Cells were washed 3 times with and resuspended in PBS at a density of 3×10^6 cells/ml. The anisotropic probes were added to a final concentration of […] and allowed to intercalate into the cell membrane for one hour in the dark. Anisotropic values were acquired via the software function of a PerkinElmer Life Sciences LS55 spectrofluorometer. Samples were excited at 358 nm, and emission was read at 430 nm, both with 10-nm slit widths. Temperature was maintained at 37° C. by means of the PerkinElmer LS55 Biokinetics accessory. Data were corrected for light scattering with an unlabeled sample of cells, and anisotropy was calculated according to the equation r=(IVV−GIVH)/(IVV+2GIVH), where r is the anisotropy value, IVV is the emission intensity acquired with the excitation- and emission-polarizing filters set vertically, G is the instrument correction factor, and IVH is the emission intensity acquired with the excitation-polarizing filter set vertically and the emission-polarizing filter set horizontally. All assays were conducted at 37° C. […]

BSF T. b. brucei [7] = assay: Trypanosome motility by video microscopy, Example 4; assay type: cell-based, Trypanosoma brucei brucei; details: 40 μM peptide, 37° C.
Protocol: Trypanosome motility. All images and videos were acquired with an Axio Observer Z1 equipped with an AxioCam MRm controlled by AxioVision 4.6 software. Videos were acquired with live cells at a density of 1×10^7 cells/ml in HMI 9 media with 10% fetal bovine serum, incubated with 40 µM SHP-1 at 37° C. Videos were recorded at magnification 63× with 50-ms acquisition times. The motility of BSF trypanosomes was scored visually from video playback of trypanosomes scanned throughout 10 μl aliquots. Data is shown as the average of triplicate trials with standard deviations.

Compound | killing of BSF T. b. brucei [3] | killing of BSF T. brucei (trypanocidal activity) (BSF T. b. brucei [5]) | also measured
CC[C@H](C)[C@H](NC(=O)[C@@H](NC(=O)[C@H](C)NC(=O)CNC(=O)[C@H](CC(C)C)NC(=O)[C@H](CC(=O)O)NC(=O)[C@H](CO)NC(=O)[C@@H](N)CCSC)C(C)C)C(=O)N[C@@H](CO)C(=O)N[C@@H](CC(C)C)C(=O)N[C@@H](CC(C)C)C(=O)N[C@@H](CC(C)C)C(=O)N[C@@H](Cc1c[nH]c2ccccc12)C(=O)NCC(=O)N[C@@H](CCCNC(=N)N)C(=O)N[C@@H](CCC(N)=O)C(=O)N[C@@H](CC(C)C)C(=O)N[C@@H](Cc1ccccc1)C(=O)N[C@@H](C)C(=O)O [Hpr-SP, MSDLGAVISLLLWGRQLFA] (H-MSDLGAVISLLLWGRQLFA-OH; N-terminus and C-terminus assumed) | – | – | permeabilization of DSPC liposomes (calcein leakage) ([1]; neutral or acidic pH): no permeabilizing activity at neutral or acidic pH; permeabilization of egg PC liposomes (calcein leakage) ([1]; robust at pH 6.8): readily permeabilized by nanomolar concentrations; toxicity towards human embryonic kidney cells [2]: No toxicity was observed
AKLIALTLLGMGLALFRNHQS (amino acid sequence of small hydrophobic peptide -2 (SHP-2)) [Signal peptide of human paraoxonase-1 without the N-terminal methionine] | equivalent to SHP-1 | – | –
ERTEESWGRRFWRRGEAC (non-specific, hydrophilic peptide predicted from the N-terminus of the alternatively edited protein-1 from mitochondria of T. b. brucei) [NSP, Non-specific hydrophilic peptide predicted from the N-terminus of alternatively edited protein-1 of T. b. brucei mitochondria, reference compound] | exhibited no toxicity | – | killing (trypanolysis) of bloodstream form trypanosomes [4]: gave no trypanolysis
FHQIWAALLYFYGIIENSIY (derivative of SHP-3 having a leucine to glutamic acid substitution at position -5) [SHP-3ΔE] | – | does not | –
FHQIWAALLYFYGIIRNSIY (derivative of SHP-3 having a leucine to arginine substitution at position -5) [SHP-3ΔR] | – | confers trypanocidal activity | rigidity of the interfacial region of the plasma membrane (TMA-DPH) [6]: increased the rigidity of the interfacial region of the plasma membrane; motility phenotype (hyperactivation, constriction) (BSF T. b. brucei [7]): induce both initial hyperactivation and subsequent constriction
SDLGAVISLLWGRQLFA (derivative of SHP-1 having a single leucine deletion) [SHP-1-ΔL] | – | – | decrease in trypanocidal activity relative to SHP-1 [3]: five-fold
SDLGAVISWGRQLFA (derivative of SHP-1 having a deletion of C-terminal leucine in triplicate) [SHP-1-ΔLLL, Derivative of SHP-1 with deletion of C-terminal leucine triplicate] | complete lose of trypanosome killing activity | – | –
SDVISLLLWGRQLFA (derivative of SHP-1 having a deletion of the N-terminal leucine-glycine-alanine residues) [SHP-1-ΔLGA, Derivative of SHP-1 with a deletion of the N-terminal leucine-glycine-alanine residues] | complete lose of trypanosome killing activity | – | –
SRLGAVISLLLWGDQLFA (derivative of SHP-1 having an aspartic acid to arginine substitution at position 2 and an arginine to aspartic acid subsitution at position -5) [SHP-1-swap, SHP-1 with aspartic acid at position 2 and arginine at position −5 swapped] | – | loss of trypanocidal activity | –
